Reference: patent US4874765A, “1,4-Disubstituted piperazines having dopaminergic activity” (Richter Gedeon Vegyeszeti Gyar, priority 1986, dated 1989)
Where two headings read alike, the source gives them in different places.

Experiments:
striatum dopamine level = experiment: Protection against MPTP-induced striatal dopamine decrease in mice; assay type: in vivo, male CFY mice; details: for inhibition in vivo at 100 µmol/kg: Mus musculus, 0.1 mmole/kg, 1 hour before MPTP 70 mg/kg s.c., striatum DA 72-96 hours after MPTP
Protocol: The dopaminergic activity of the compounds of the invention was determined by in vitro and in vivo animals tests. On the examination of the in vivo activity, the protective capability of the compounds against the neurotoxic effect of 1-methyl-4-phenyl-1,2,3,6-tetrahydropyridine (MPTP) was also studied. […] Davis et al.: Psychiat.
(§1) For these investigations male CFY mice (LATI, Godollo, Hungary) weighing 20-25 g were used. The compounds to be tested were homogenized in 1% Tween 80 solution and administered to the animals in a dose of 0.1 mmole/kg (in the route given in the Table) 1 hour before administering MPTP. MPTP was freshly dissolved in physiological saline solution and subcutaneously given to the mice in a dose of 70 mg/kg. 72 to 96 hours after the administration of MPTP the animals were killed by decapitation, their brain was rapidly removed, cooled in an ice-cold physiological saline solution, the striatum was excised and refrigerated in dry ice.
The tissues (in a refrigerated condition) were weighed and homogenized in 1 ml of 0.4N perchloric acid solution containing 0.5% of Na2 S2 O5, 0.25 % of Na2 EDTA and 100 ng of M-methyldopamine (internal standard for the determination of catecholamines) in an Ultra-Turrax equipment. The homogenate was centrifuged at 4° C. at 20,000 g for 10 minutes, then 0.8 ml of the supernatent was taken out. After adding 20 mg of activated aluminum oxide, the pH value of the solution was adjusted to 8 by adding 0.5M Tris solution and the tubes were shaken for 20 minutes. The aluminium oxide was settled, the supernatent was removed by suction and washed 3 times with 5 ml of distilled water each. The catecholamines adsorbed on the aluminium oxide were eluted with 1 ml of 0.05N perchloric acid. From a part of the eluate, dopamine was determined by using high pressure liquid chromatography by means of electrochemical detection (Labor MIM Oe-320 pump, 4×150 mm Nucleosil 5 C-18 analytical column and 4×20 mm Nucleosil 5 C-18 supplementary column; electrochemical detector fitted with a glassy-carbon working electrode and an Ag/AgCl2 reference electrode; Eltron potentiostat, LKB 2110 2-channel recorder; with an oxidation potential of 600 mV and as mobile phase 0.1M NaH2 PO4, 1 mM Na2 EDTA, 1 mM octanesulfonic acid containing 8.5% of acetonitrile; flow rate 1 ml/minute).
The protection against the dopamine decrease induced by MPTP was calculated as follows: [formula]
(§2) As a referenced drug, trihexyphenidyl hydrochloride (α-cyclohexyl-α-phenyl-1-piperidinepropanol hydrochloride) was used in a dose of 10 mg/kg (<0.1 mmole/kg).

dopaminergic system [1] = details: cited from earlier work
dopaminergic system [2] = details: cited from earlier work; remark: listed apart in the source
[3] = dose higher than 10 mg/kg; mice
Protocol: as §1, §2

[4] = ip, read-out: DA decrease induced by MPTP, % inhibition, i.p. route
[5] = po, read-out: DA decrease induced by MPTP, % inhibition, p.o. route

C=CCN1CCN(CCOC(c2ccc(F)cc2)c2ccc(F)cc2)CC1 [Compound 1, 1-[2[bis(4-fluorophenyl)methoxy]ethyl]-4-(2-propenyl)-piperazine]
inhibition in vivo at 100 µmol/kg (striatum dopamine level; [4]): 98% | inhibition in vivo at 100 µmol/kg (striatum dopamine level; [5]): 100%

CCCN1CCN(CCOC(c2ccc(F)cc2)c2ccc(F)cc2)CC1 [Compound 2]
inhibition in vivo at 100 µmol/kg (striatum dopamine level; [4]): 100%

C=CCN1CCN(CCOC(c2ccccc2)c2ccc(F)cc2)CC1 (centres unmarked) [Compound 3, 1-[2-[(4-fluorophenyl)-phenylmethoxy]ethyl]-4-(2-propenyl)piperazine]
inhibition in vivo at 100 µmol/kg (striatum dopamine level; [5]): 100%

C=CCN1CCN(CCOC(c2ccc(F)cc2)c2ccc(Cl)cc2)CC1 (centres unmarked) [Compound 4, 1-[2-[(4-chlorophenyl)-(4-fluorophenyl)methoxy]-ethyl]-4-(2-propenyl)piperazine]
inhibition in vivo at 100 µmol/kg (striatum dopamine level; [4]): 100%

C=CCN1CCN(CCOC(c2ccc(F)cc2)c2ccc(Br)cc2)CC1 (centres unmarked) [Compound 5, 1-[2-[(4-bromophenyl)-(4-fluorophenyl)methoxy]-ethyl]-4-(2-propenyl)piperazine]
inhibition in vivo at 100 µmol/kg (striatum dopamine level; [4]): 100%

C=CCN1CCN(CCOC(c2ccc(Cl)cc2)c2ccc(Cl)cc2)CC1 [Compound 6, 1-[2-[bis(4-chlorophenyl)methoxy]ethyl]-4-(2-propenyl)piperazine]
inhibition in vivo at 100 µmol/kg (striatum dopamine level; [4]): 100%

C=CCN1CCN(CCOC(c2ccccc2)c2ccc(Cl)c(Cl)c2)CC1 (centres unmarked) [Compound 7, 1-[2-[(3,4-dichlorophenyl)-phenylmethoxy]ethyl]--4-(2-propenyl)-piperazine]
inhibition in vivo at 100 µmol/kg (striatum dopamine level; [4]): 100% | inhibition in vivo at 100 µmol/kg (striatum dopamine level; [5]): 98%

CCCN1CCN(CCOC(c2ccc(F)cc2)c2ccc(Cl)cc2)CC1 (centres unmarked) [Compound 8, 1-[2-[(4-chlorophenyl)-(4-flurophenyl)methoxy]-ethyl]-4-propyl-piperazine]
inhibition in vivo at 100 µmol/kg (striatum dopamine level; [4]): 95%

CCCCN1CCN(CCOC(c2ccc(F)cc2)c2ccc(F)cc2)CC1 [Compound 9, 1-[2-[bis(4-flurophenyl)methoxy]ethyl]-4-butyl-piperazine]
inhibition in vivo at 100 µmol/kg (striatum dopamine level; [4]): 100%

C=CCN1CCN(CCOC(C)(c2ccc(F)cc2)c2ccc(F)cc2)CC1 [Compound 10, 1-[2-[1-bis(4-fluorophenyl)ethoxy]ethyl]-4-(2-propenyl)piperazine]
inhibition in vivo at 100 µmol/kg (striatum dopamine level; [4]): 89%

CCCCCC(=O)N1CCN(CCOC(c2ccc(F)cc2)c2ccc(F)cc2)CC1 [Compound 11, 1-[2-[bis(4-fluorophenyl)methoxy]ethyl]-4-(1-oxo-hexyl)piperazine]
inhibition in vivo at 100 µmol/kg (striatum dopamine level; [4]): 82%

C#CCN1CCN(CCOC(c2ccc(F)cc2)c2ccc(F)cc2)CC1 [Compound 12, 1-[2-[bis(4-fluorophenyl)methoxy]ethyl]-4-(2--propynyl)piperazine]
inhibition in vivo at 100 µmol/kg (striatum dopamine level; [5]): 94%

C=C(C)CN1CCN(CCOC(c2ccc(F)cc2)c2ccc(F)cc2)CC1 [Compound 13, 1-[2-[bis(4-fluorophenyl)methoxy]ethyl]-4-(2-methyl--2-propenyl)-piperazine]
inhibition in vivo at 100 µmol/kg (striatum dopamine level; [5]): 95%

CCC(=O)N1CCN(CCOC(c2ccc(F)cc2)c2ccc(F)cc2)CC1 [Compound 14, 1-[2-[bis(4-fluorophenyl)methoxy]ethyl]-4-(1-oxo-propyl)piperazine]
inhibition in vivo at 100 µmol/kg (striatum dopamine level; [5]): 71%

CCCCN1CCN(CCOC(c2ccccc2)c2ccc(Cl)c(Cl)c2)CC1 (centres unmarked) [Compound 15]
inhibition in vivo at 100 µmol/kg (striatum dopamine level; [4]): 98%

CCCCN1CCN(CCOC(c2ccc(F)cc2)c2ccc(Cl)cc2)CC1 (centres unmarked) [Compound 16, 1-[2-[(4-chlorophenyl)-(4-fluorophenyl)methoxy]-ethyl]-4-butylpiperazine]
inhibition in vivo at 100 µmol/kg (striatum dopamine level; [5]): 86%

CCCCCCN1CCN(CCOC(c2ccc(F)cc2)c2ccc(F)cc2)CC1 [Compound 17, 1-[2-[bis(4-fluorophenyl)methoxy]ethyl]-4-hexyl-piperazine]
inhibition in vivo at 100 µmol/kg (striatum dopamine level; [5]): 89%

CN1CC=C(c2ccccc2)CC1.Cl [MPTP, 1-methyl-4-phenyl-1,2,3,6-tetrahydropyridine hydrochloride]
degeneration of the dopaminergic system in men and monkeys (dopaminergic system [1]): causes the degeneration of the dopaminergic system | selective dopaminergic system-damaging effect on mice (dopaminergic system [2]): selective dopaminergic system-damaging effect

Cl.OC(CCN1CCCCC1)(c1ccccc1)C1CCCCC1 (stereo not drawn) [Trihexyphenidyl.HCl, α-cyclohexyl-α-phenyl-1-piperidinepropanol hydrochloride, reference compound]
lethality at doses above 10 mg/kg [3]: The animals perished on administration of a higher dose | DA decrease induced by MPTP, % inhibition, i.p. route (reference drug) (striatum dopamine level; i.p., 10 mg/kg (<0.1 mmole/kg), before MPTP 70 mg/kg s.c.): 7%
